{"source": "patent US20260216176A1", "about": "“USE OF PCLX-001 OR PCLX-002 AS A RADIOSENSITIZER” (ACYLEX PHARMACEUTICALS INC., priority 2023, published 2026)", "key": {"[1]": {"assay": "Plasma, brain and CSF pharmacokinetics and brain tissue accumulation in mice (LC-MS/MS)", "assay_type": "in vivo, male C57BL/6 mice", "settings": "male, C57BL/6, mouse, oral gavage 5 mg/kg; for Cmax: read-out: C0/Cmax; for half-life: read-out: T½ (converted)"}, "[2]": {"assay": "Plasma pharmacokinetics in phase I clinical trial NCT04836195 (oral daily dose)", "assay_type": "in vivo, human", "settings": "for AUC(0-t) / Cmax / Tmax / half-life: human, plasma; for AUC(0-t): read-out: AUC0-24 (mean, SD); for Cmax: read-out: Cmax (mean, SD)", "method": "A phase I, multicenter, nonrandomized, open-label study of zelenirstat, entitled “Phase I Trial of PCLX-001 in B-cell Non-Hodgkin Lymphoma and Advanced Solid Malignancies” (reference 6), is being conducted and is registered at clinicaltrials.gov as NCT04836195. In this study, PCLX-001 was administered as an oral daily dose every morning to patients with advanced cancer, on 28-day cycles, until toxicity or progressive disease. Peripheral blood samples were collected over six time points in the first 8 hours of cycle 1 day 1, and again on cycle 1 day 15, with pretreatment day 1 levels obtained with every subsequent cycle. PCLX-001/zelenirstat plasma concentrations were quantified using a validated ultra-performance liquid chromatography with tandem mass spectrometry detection and analyzed using a nonlinear mixed-effects model."}, "[3]": {"settings": "oral, 20 mg, 20 mg, Cycle 1 D15"}, "[4]": {"settings": "oral, 40 mg, 40 mg, Cycle 1 D15"}, "[5]": {"settings": "oral, 70 mg, 70 mg, Cycle 1 D15"}, "[6]": {"settings": "oral, 100 mg, 100 mg, Cycle 1 D1"}, "[7]": {"settings": "oral, 100 mg, 100 mg, Cycle 1 D15"}, "[8]": {"settings": "oral, 140 mg, 140 mg, Cycle 1 D1"}, "[9]": {"settings": "oral, 140 mg, 140 mg, Cycle 1 D15"}, "[10]": {"settings": "oral, 210 mg, 210 mg, Cycle 1 D1"}, "[11]": {"settings": "oral, 210 mg, 210 mg, Cycle 1 D15"}}}
{"smiles": "Cc1c(N[S+](=O)(O)c2c(Cl)cc(-c3ccnc(N4CCNCC4)c3)cc2Cl)c(CC(C)C)nn1C", "note": "[PCLX-001]", "values": [{"measurement": "Tmax", "setting": "[1]; Brain", "result": 4, "unit": "h"}, {"measurement": "Cmax", "setting": "[1]; Brain", "result": 176, "unit": "nM"}, {"measurement": "Kp", "setting": "[1]; Brain, read-out: T/P ratio (Tissue to plasma AUClast ratio)", "result": 0.02}, {"measurement": "half-life", "setting": "[1]; Brain", "result": 250, "unit": "min"}, {"measurement": "AUC(0-t)", "setting": "[1]; CSF", "result": 0.166, "unit": "µM·h"}, {"measurement": "Tmax", "setting": "[1]; CSF", "result": 4, "unit": "h"}, {"measurement": "Cmax", "setting": "[1]; CSF", "result": 36.6, "unit": "nM"}, {"measurement": "AUC(0-t)", "setting": "[1]; Plasma", "result": 108, "unit": "µM·h"}, {"measurement": "Tmax", "setting": "[1]; Plasma", "result": 4, "unit": "h"}, {"measurement": "bioavailability", "setting": "[1]; Plasma", "result": 97, "unit": "%"}, {"measurement": "Cmax", "setting": "[1]; Plasma", "result": 10600, "unit": "nM"}, {"measurement": "half-life", "setting": "[1]; Plasma", "result": 106, "unit": "min"}, {"measurement": "AUC(0-t)", "setting": "[2]; oral, 20 mg, 20 mg, Cycle 1 D1", "result": 1580, "unit": "ng·h/mL"}, {"measurement": "Cmax", "setting": "[2]; oral, 20 mg, 20 mg, Cycle 1 D1", "result": 276, "unit": "ng/mL"}, {"measurement": "Tmax", "setting": "[2]; oral, 20 mg, 20 mg, Cycle 1 D1, read-out: Tmax (median, range)", "result": 2, "unit": "h"}, {"measurement": "half-life", "setting": "[2]; oral, 20 mg, 20 mg, Cycle 1 D1, read-out: t½ (mean, SD) (converted)", "result": 402, "unit": "min"}, {"measurement": "AUC(0-t)", "setting": "[2]; [3]", "result": 2070, "unit": "ng·h/mL"}, {"measurement": "Cmax", "setting": "[2]; [3]", "result": 359, "unit": "ng/mL"}, {"measurement": "Tmax", "setting": "[2]; oral, 20 mg, 20 mg, Cycle 1 D15, read-out: Tmax (median, range)", "result": 1, "unit": "h"}, {"measurement": "half-life", "setting": "[2]; oral, 20 mg, 20 mg, Cycle 1 D15, read-out: t½ (mean, SD) (converted)", "result": 444, "unit": "min"}, {"measurement": "AUC(0-t)", "setting": "[2]; oral, 40 mg, 40 mg, Cycle 1 D1", "result": 4820, "unit": "ng·h/mL"}, {"measurement": "Cmax", "setting": "[2]; oral, 40 mg, 40 mg, Cycle 1 D1", "result": 848, "unit": "ng/mL"}, {"measurement": "Tmax", "setting": "[2]; oral, 40 mg, 40 mg, Cycle 1 D1, read-out: Tmax (median, range)", "result": 0.9, "unit": "h"}, {"measurement": "half-life", "setting": "[2]; oral, 40 mg, 40 mg, Cycle 1 D1, read-out: t½ (mean, SD) (converted)", "result": 552, "unit": "min"}, {"measurement": "AUC(0-t)", "setting": "[2]; [4]", "result": 7060, "unit": "ng·h/mL"}, {"measurement": "Cmax", "setting": "[2]; [4]", "result": 774, "unit": "ng/mL"}, {"measurement": "Tmax", "setting": "[2]; oral, 40 mg, 40 mg, Cycle 1 D15, read-out: Tmax (median, range)", "result": 2.2, "unit": "h"}, {"measurement": "half-life", "setting": "[2]; oral, 40 mg, 40 mg, Cycle 1 D15, read-out: t½ (mean, SD) (converted)", "result": 582, "unit": "min"}, {"measurement": "AUC(0-t)", "setting": "[2]; oral, 70 mg, 70 mg, Cycle 1 D1", "result": 5650, "unit": "ng·h/mL"}, {"measurement": "Cmax", "setting": "[2]; oral, 70 mg, 70 mg, Cycle 1 D1", "result": 665, "unit": "ng/mL"}, {"measurement": "Tmax", "setting": "[2]; oral, 70 mg, 70 mg, Cycle 1 D1, read-out: Tmax (median, range)", "result": 3.9, "unit": "h"}, {"measurement": "half-life", "setting": "[2]; oral, 70 mg, 70 mg, Cycle 1 D1, read-out: t½ (mean, SD) (converted)", "result": 570, "unit": "min"}, {"measurement": "AUC(0-t)", "setting": "[2]; [5]", "result": 6610, "unit": "ng·h/mL"}, {"measurement": "Cmax", "setting": "[2]; [5]", "result": 467, "unit": "ng/mL"}, {"measurement": "Tmax", "setting": "[2]; oral, 70 mg, 70 mg, Cycle 1 D15, read-out: Tmax (median, range)", "result": 4.1, "unit": "h"}, {"measurement": "AUC(0-t)", "setting": "[2]; [6]", "result": 18900, "unit": "ng·h/mL"}, {"measurement": "Cmax", "setting": "[2]; [6]", "result": 2190, "unit": "ng/mL"}, {"measurement": "Tmax", "setting": "[2]; oral, 100 mg, 100 mg, Cycle 1 D1, read-out: Tmax (median, range)", "result": 2, "unit": "h"}, {"measurement": "half-life", "setting": "[2]; oral, 100 mg, 100 mg, Cycle 1 D1, read-out: t½ (mean, SD) (converted)", "result": 480, "unit": "min"}, {"measurement": "AUC(0-t)", "setting": "[2]; [7]", "result": 24700, "unit": "ng·h/mL"}, {"measurement": "Cmax", "setting": "[2]; [7]", "result": 2300, "unit": "ng/mL"}, {"measurement": "Tmax", "setting": "[2]; oral, 100 mg, 100 mg, Cycle 1 D15, read-out: Tmax (median, range)", "result": 4, "unit": "h"}, {"measurement": "half-life", "setting": "[2]; oral, 100 mg, 100 mg, Cycle 1 D15, read-out: t½ (mean, SD) (converted)", "result": 720, "unit": "min"}, {"measurement": "AUC(0-t)", "setting": "[2]; [8]", "result": 11900, "unit": "ng·h/mL"}, {"measurement": "Cmax", "setting": "[2]; [8]", "result": 1770, "unit": "ng/mL"}, {"measurement": "Tmax", "setting": "[2]; oral, 140 mg, 140 mg, Cycle 1 D1, read-out: Tmax (median, range)", "result": 1, "unit": "h"}, {"measurement": "half-life", "setting": "[2]; oral, 140 mg, 140 mg, Cycle 1 D1, read-out: t½ (mean, SD) (converted)", "result": 432, "unit": "min"}, {"measurement": "AUC(0-t)", "setting": "[2]; [9]", "result": 8150, "unit": "ng·h/mL"}, {"measurement": "Cmax", "setting": "[2]; [9]", "result": 1340, "unit": "ng/mL"}, {"measurement": "Tmax", "setting": "[2]; oral, 140 mg, 140 mg, Cycle 1 D15, read-out: Tmax (median, range)", "result": 2, "unit": "h"}, {"measurement": "half-life", "setting": "[2]; oral, 140 mg, 140 mg, Cycle 1 D15, read-out: t½ (mean, SD) (converted)", "result": 624, "unit": "min"}, {"measurement": "AUC(0-t)", "setting": "[2]; [10]", "result": 14700, "unit": "ng·h/mL"}, {"measurement": "Cmax", "setting": "[2]; [10]", "result": 1770, "unit": "ng/mL"}, {"measurement": "Tmax", "setting": "[2]; oral, 210 mg, 210 mg, Cycle 1 D1, read-out: Tmax (median, range)", "result": 3, "unit": "h"}, {"measurement": "half-life", "setting": "[2]; oral, 210 mg, 210 mg, Cycle 1 D1, read-out: t½ (mean, SD) (converted)", "result": 468, "unit": "min"}, {"measurement": "AUC(0-t)", "setting": "[2]; [11]", "result": 27600, "unit": "ng·h/mL"}, {"measurement": "Cmax", "setting": "[2]; [11]", "result": 2940, "unit": "ng/mL"}, {"measurement": "Tmax", "setting": "[2]; oral, 210 mg, 210 mg, Cycle 1 D15, read-out: Tmax (median, range)", "result": 2, "unit": "h"}, {"measurement": "half-life", "setting": "[2]; oral, 210 mg, 210 mg, Cycle 1 D15, read-out: t½ (mean, SD) (converted)", "result": 462, "unit": "min"}, {"measurement": "Tmax", "setting": "[2]; oral, patients taking proton pump inhibitors (PPI), read-out: maximum Tmax value observed", "result": "~8", "unit": "h"}, {"measurement": "Tmax", "setting": "[2]; oral, patients taking proton pump inhibitors (PPI), read-out: median Tmax range", "result": "1 to 6", "unit": "h"}, {"measurement": "half-life", "setting": "[2]; oral, C1D1, read-out: mean terminal half-life across the dose cohorts", "result": "402 to 570", "unit": "min"}, {"measurement": "Tmax", "setting": "[2]; po, single oral 20 mg to 210 mg, C1D1, read-out: median Tmax values across the dose cohorts", "result": "1 to 4", "unit": "h"}, {"measurement": "accumulation following repeated administration", "setting": "[2]; majority of patients, 14 days", "result": "< 2", "unit": "fold"}, {"measurement": "accumulation beyond Day 15", "setting": "[2]; pre-dose concentrations over multiple cycles", "result": "no accumulation was apparent"}]}
